Holding throughout (type): biochemical
The target of one test is T1, human α-thrombin (Homo sapiens, UniProt P00734).
T1 construct: Purified human a-thrombin was diluted into assay buffer; purchased Enzyme Research Laboratories (South Bend, Indiana)
The test can be described thus: In vitro inhibition of purified thrombin, Ki determination (p-nitroanilide substrate hydrolysis). As to conditions: Enzyme: Thrombin; substrate Suc-Ala-Ala-Pro-Arg-pNA 20 μM, 37° C., pH 7.5. From the text: (§1) All buffer salts were obtained from Sigma Chemical Company (St. Louis, Mo.), and were of the highest purity available. The enzyme substrates, N-benzoyl-Phe-Val-Arg-p-nitroanilide (SigmaB7632),N-benzoyl-Ile-Glu-Gly-Arg-p-nitroanilide (Sigma B2291), N-p-tosyl-Gly-Pro-Lys-p-nitroanilide (Sigma T6140), and N-succinyl-Ala-Ala-Pro-Phe-p-nitroanilide (Sigma S7388) were all obtained from Sigma.
(§2) Human α-thrombin and human factor Xa were obtained from Enzyme Research Laboratories (South Bend, Indiana). Bovine trypsin was obtained from Sigma.
All assays are based on the ability of the test compound to inhibit the enzyme catalyzed hydrolysis of a peptide p-nitroanilide substrate. In a typical Ki determination, substrate is prepared in DMSO, and diluted into an assay buffer consisting of 50 mM HEPES, 200 mM NaCl, pH 7.5. The final concentration for each of the substrates is listed below. In general, substrate concentrations are lower than the experimentally determined value for Km. Test compounds are prepared as a 0.16 mg/mL solution in DMSO. Dilutions are prepared in DMSO yielding 8 final concentrations encompassing a 200-fold concentration range. Enzyme solutions are prepared at the concentrations listed below in assay buffer.
(§3) In a typical Ki determination, into each well of a 96 well plate is pipetted 280 uL of substrate solution, 10 μL of inhibitor solution, and the plate allowed to thermally equilibrate at 37° C. in a Molecular Devices plate reader for >10 minutes. Reactions were initiated by the addition of a 20 μL aliquot of enzyme, and the absorbance increase at 405 nm is recorded for 15 minutes. Data corresponding to less than 10% of the total substrate hydrolysis were used in the calculations. The ratio of the velocity (rate of the change in absorbance as a function of time) for a sample containing no inhibitor is divided by the velocity of a sample containing inhibitor, and is plotted as a finction of inhibitor concentration. The data are fit to a linear regression, and the value of the slope of the line calculated. The inverse of the slope is the experimentally determined Ki value.
Thrombin activity was assessed as the ability to hydrolyze the substrate Suc-Ala-Ala-Pro-Arg-pNA. Substrate solutions were prepared at a concentration of 20 μM (20 uM<<Km=180 μM) in assay buffer. Final DMSO concentration was 0.3%. Purified human a-thrombin was diluted into assay buffer to a concentration of […]. Final reagent concentrations were: [thrombin] ═0.5 nM, [Suc-Ala-Ala-Pro-Arg-pNA]=20 μM.

The target of the next test is T2, bovine α-chymotrypsin (Bos taurus, UniProt P00766).
T2 construct: Purified bovine x-chymotrypsin was diluted into assay buffer
The test is described as follows: In vitro inhibition of purified chymotrypsin, Ki determination (p-nitroanilide substrate hydrolysis). The note with it: Enzyme: Chymotrypsin; substrate Suc-Ala-Ala-Pro-Phe-pNA 14 μM, 37° C., pH 7.5.
Source text: as §1
All assays are based on the ability of the test compound to inhibit the enzyme catalyzed hydrolysis of a peptide p-nitroanilide substrate. In a typical Ki determination, substrate is prepared in DMSO, and diluted into an assay buffer consisting of 50 mM HEPES, 200 mM NaCl, pH 7.5. […] In general, substrate concentrations are lower than the experimentally determined value for Km. […]
as §3, with “Data corresponding to less than 10% of the total substrate hydrolysis were used in the calculations.” left out, “The data are fit to a linear regression, and the value of the slope of the line calculated. The inverse of the slope is the experimentally determined Ki value.” left out

The next test has as its target T3, human factor Xa (Homo sapiens, UniProt P00742).
T3 construct: purchased Enzyme Research Laboratories (South Bend, Indiana)
The test is described as follows: In vitro inhibition of purified factor Xa, Ki determination (p-nitroanilide substrate hydrolysis). The note with it: Enzyme: Factor Xa; substrate Bz-Ile-Glu-Gly-Arg-pNA 51 μM, 37° C., pH 7.5.
Source text: as §1, §2
(§4) All assays are based on the ability of the test compound to inhibit the enzyme catalyzed hydrolysis of a peptide p-nitroanilide substrate. […] In general, substrate concentrations are lower than the experimentally determined value for Km. […]
as §3, with “Data corresponding to less than 10% of the total substrate hydrolysis were used in the calculations.” left out, “The data are fit to a linear regression, and the value of the slope of the line calculated. The inverse of the slope is the experimentally determined Ki value.” left out

A further test addresses T4, bovine trypsin (Bos taurus, UniProt P00760).
T4 construct: Purified bovine trypsin was diluted into assay buffer; purchased Sigma
T4 sequence (P00760 24-246): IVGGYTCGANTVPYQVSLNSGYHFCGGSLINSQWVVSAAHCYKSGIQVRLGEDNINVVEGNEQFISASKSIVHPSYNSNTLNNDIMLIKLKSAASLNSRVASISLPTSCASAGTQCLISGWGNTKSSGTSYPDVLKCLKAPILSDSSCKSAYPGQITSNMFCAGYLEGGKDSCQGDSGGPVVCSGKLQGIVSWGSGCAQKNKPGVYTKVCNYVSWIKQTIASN
The test is described as follows: In vitro inhibition of purified trypsin, Ki determination (p-nitroanilide substrate hydrolysis). The note with it: Enzyme: Trypsin; substrate Bz-Phe-Val-Arg-pNA 14 μM, 37° C., pH 7.5.
Source text: as §1, §2, §4
as §3, with “Data corresponding to less than 10% of the total substrate hydrolysis were used in the calculations.” left out, “The data are fit to a linear regression, and the value of the slope of the line calculated. The inverse of the slope is the experimentally determined Ki value.” left out

Our source for the Ki values is patent publication US6414020B2, “Amidino protease inhibitors” (3- Dimensional Pharmaceuticals, Inc., priority 1995, dated 2002).

Counter-ions that a name gives are not always drawn.

In general, Ki refers to a measure of affinity in units of concentration, obtained from inhibition or displacement. Lower therefore signals a stronger hold on the target.

T3 sequence (P00742 235-488 limits assumed): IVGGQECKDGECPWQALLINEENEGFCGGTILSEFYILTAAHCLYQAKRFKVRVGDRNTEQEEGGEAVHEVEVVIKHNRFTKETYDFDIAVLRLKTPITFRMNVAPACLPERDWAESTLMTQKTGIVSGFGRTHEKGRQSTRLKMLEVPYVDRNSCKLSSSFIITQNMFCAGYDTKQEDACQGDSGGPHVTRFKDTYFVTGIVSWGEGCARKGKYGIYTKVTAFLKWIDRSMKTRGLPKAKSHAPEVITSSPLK
T3 sequence (P00742 41-179 limits assumed): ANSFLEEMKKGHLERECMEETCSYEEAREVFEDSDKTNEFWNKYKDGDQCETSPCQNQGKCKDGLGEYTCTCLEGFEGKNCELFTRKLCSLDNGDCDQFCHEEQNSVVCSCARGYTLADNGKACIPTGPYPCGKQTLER

`Cc1cc(OCCCC(=N)N)cc(OS(=O)(=O)c2ccccc2Cl)c1` [Example 14, 2-Chlorobenzenesulfonic acid 3-[3-amidinopropoxy]-5-methylphenyl ester hydrochloride]: on human α-thrombin, the Ki came to 0.57 µM.

`CC(=N)N1CCC(COc2cc(C)cc(OS(=O)(=O)c3cccc(Cl)c3)c2)CC1` [Example 5, 3-Chlorobenzenesulfonic acid 3-[[(1-acetimidoyl)piperidin-4-yl]methoxyl]-5-methylphenyl ester hydrochloride] gave a Ki on human α-thrombin of 4.86 µM.

Regarding `Cc1cc(OCCCCCC(=N)N)cc(OS(=O)(=O)c2ccccc2Cl)c1` [Example 18, 2-Chlorobenzenesulfonic acid 3-[5-amidinopentyloxy]-5-methylphlenyl ester acetic acid salt], the Ki on bovine α-chymotrypsin was determined as 6.29 µM.

For `Cc1cc(OCc2cccc(C(=N)N)c2)cc(OS(=O)(=O)c2ccccc2Cl)c1` [Example 6, 2-Chlorobenzenesulfonic acid 3-[(3amidinophenyl)methoxy]-5-methylphenyl ester hydrochloride], the affinity on human factor Xa, expressed as Ki, was 2.72 µM. For the compound `CC(=N)N1CCC(COc2cc(C)cc(OS(=O)(=O)c3cccc(Cl)c3Cl)c2)CC1` [Example 8, 2,3-Dichlorobenzenesulfonic acid 3-[[(1-acetimidoyl)piperidin-4-yl]methoxy]-5-methylphenyl ester hydrochloride], the Ki on human α-thrombin amounted to 1.72 µM. Turning to `CC(=N)N1CCC(COc2cc(C)cc(OS(=O)(=O)c3ccccc3Cl)c2)CC1` [Example 1, 2-Chlorobenzenesulfonic acid 3-[(1-acetimidoylpiperidin-4-yl)methoxy]-5-methylphenyl ester hydrochloride], the Ki at human α-thrombin was determined as 1.65 µM. On bovine trypsin, `Cc1cc(OCc2cccc(C(=N)NO)c2)cc(OS(=O)(=O)c2ccccc2Cl)c1` [Example 7, 2-Chlorobenzenesutronic acid 3-[[3-(N-hydroxy)amidinophenyl]methoxy-5-methylphenyl ester hydrochloride] returned a Ki of 5.23 µM.
